This note sets out measurements from the supplement of paper PMC10307832.

What all share (assay): relative viability (nuclei count vs DMSO), 5 days (fraction); higher = more cells survive
Compound in assay [1]: C=CC(=O)Nc1cc(-n2c(=O)ccc3cnc4ccc(-c5ccc(NS(C)(=O)=O)cc5)cc4c32)ccc1C [BMX-IN-1] + Cc1nc(Nc2ncc(C(=O)Nc3c(C)cccc3Cl)s2)cc(N2CCN(CCO)CC2)n1 [Dasatinib] (partner 0.075 µM)
A digest of the protocol: (§1)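 Nuclei were stained with Hoechst during a one-step fixation (final 0.05% Triton X-100, 1% formaldehyde, 1 ug/ml Hoechst) carried out 5 days after dosing, then counted on 4× images. The cells, lung cancer lines in 1536-well plates, had been dosed by pin tool the day after seeding with one drug alone or a fixed anchor-drug dose plus five library-drug doses (not always all listed) in √10 steps. Relative viability is the nuclei count in treated wells divided by that in vehicle wells, and each value is the median of duplicate plates.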

Compound in assay [2]: C=CC(=O)Nc1cc(-n2c(=O)ccc3cnc4ccc(-c5ccc(NS(C)(=O)=O)cc5)cc4c32)ccc1C [BMX-IN-1] + N=C(N)NC(=N)NCCc1ccccc1 [Phenformin] (partner 250 µM)
A digest of the protocol:
as §1

Compound in assay [3]: C=CC(=O)Nc1cc(-n2c(=O)ccc3cnc4ccc(-c5ccc(NS(C)(=O)=O)cc5)cc4c32)ccc1C [BMX-IN-1] + Nc1ncn([C@H]2C[C@H](O)[C@@H](CO)O2)c(=O)n1 [Decitabine] (partner 2 µM)
The procedure, abridged: as §1

Compound in assay [4]: C=CCc1cccc(/C=N/NC(=O)CN2CCN(Cc3ccccc3)CC2)c1O [PAC-1] + CC(C)C[C@H](NC(=O)[C@H](Cc1ccccc1)NC(=O)c1cnccn1)B(O)O [Bortezomib] (partner 0.002 µM)
The procedure, abridged:
as §1

Compound in assay [5]: C=CCc1cccc(/C=N/NC(=O)CN2CCN(Cc3ccccc3)CC2)c1O [PAC-1] + Nc1ncn([C@H]2C[C@H](O)[C@@H](CO)O2)c(=O)n1 [Decitabine] (partner 2 µM)
A digest of the protocol: as §1

In the case of NCI-H650, the relative viability in assay [1] (first compound 0.02 µM) came out at 0.49; in assay [1] (first compound 0.2 µM), 0.469; in assay [1] (first compound 0.6325 µM) it was 0.517; in assay [1] (first compound 2 µM), 0.478; in assay [2] (first compound 0.02 µM), 0.46; in assay [2] (first compound 0.2 µM) it was 0.505. Further, the relative viability in assay [2] (first compound 0.6325 µM) is 0.452; in assay [2] (first compound 2 µM), 0.455; in assay [3] (first compound 0.02 µM), 0.321; in assay [3] (first compound 0.2 µM), 0.303; in assay [3] (first compound 0.6325 µM) it was 0.318; in assay [3] (first compound 2 µM) it was 0.346. The relative viability in assay [4] (first compound 0.02 µM) was determined as 0.755; in assay [4] (first compound 0.06325 µM), 0.871; in assay [4] (first compound 0.2 µM), 0.736; in assay [4] (first compound 2 µM) it was 0.735; in assay [5] (first compound 0.02 µM) it was 0.307; in assay [5] (first compound 0.06325 µM), 0.331. Besides, the relative viability in assay [5] (first compound 0.2 µM) was found to be 0.298; in assay [5] (first compound 2 µM), 0.45.
NCI-H661: the relative viability is 0.993 in assay [1] (first compound 0.02 µM); 0.852 in assay [1] (first compound 0.2 µM); 1 in assay [1] (first compound 0.6325 µM); 0.946 in assay [1] (first compound 2 µM); 0.242 in assay [2] (first compound 0.02 µM); 0.259 in assay [2] (first compound 0.2 µM). Moreover, the relative viability came to 0.282 in assay [2] (first compound 0.6325 µM); 0.255 in assay [2] (first compound 2 µM); 0.617 in assay [3] (first compound 0.02 µM); 0.528 in assay [3] (first compound 0.2 µM); 0.634 in assay [3] (first compound 0.6325 µM); 0.525 in assay [3] (first compound 2 µM). Moreover, the relative viability in assay [4] (first compound 0.02 µM) worked out at 0.782; in assay [4] (first compound 0.06325 µM), 0.816; in assay [4] (first compound 0.2 µM), 0.782; in assay [4] (first compound 2 µM), 0.91; in assay [5] (first compound 0.02 µM) it was 0.526; in assay [5] (first compound 0.06325 µM) it was 0.53. For the same cell line, the relative viability in assay [5] (first compound 0.2 µM) came to 0.439; in assay [5] (first compound 2 µM) it was 0.506.
Consider NCI-H727, for which the relative viability in assay [1] (first compound 0.02 µM) amounted to 0.438; in assay [1] (first compound 0.2 µM), 0.339; in assay [1] (first compound 0.6325 µM), 0.479; in assay [1] (first compound 2 µM), 0.444; in assay [2] (first compound 0.02 µM), 0.532; in assay [2] (first compound 0.2 µM), 0.546. The relative viability turned out to be 0.584 in assay [2] (first compound 0.6325 µM); 0.392 in assay [2] (first compound 2 µM); 0.668 in assay [3] (first compound 0.02 µM); 0.917 in assay [3] (first compound 0.2 µM); 0.777 in assay [3] (first compound 0.6325 µM); 1.01 in assay [3] (first compound 2 µM). Also, the relative viability was 0.905 in assay [4] (first compound 0.02 µM); 0.925 in assay [4] (first compound 0.06325 µM); 0.944 in assay [4] (first compound 0.2 µM); 0.818 in assay [4] (first compound 2 µM); 0.982 in assay [5] (first compound 0.02 µM); 0.809 in assay [5] (first compound 0.06325 µM). The relative viability was 0.772 in assay [5] (first compound 0.2 µM) and 0.98 in assay [5] (first compound 2 µM).
Regarding NCI-H838, the relative viability turned out to be 0.28 in assay [1] (first compound 0.02 µM); 0.323 in assay [1] (first compound 0.2 µM); 0.347 in assay [1] (first compound 0.6325 µM); 0.282 in assay [1] (first compound 2 µM); 0.564 in assay [2] (first compound 0.02 µM); 0.739 in assay [2] (first compound 0.2 µM). For the same cell line, the relative viability in assay [2] (first compound 0.6325 µM) worked out at 0.744; in assay [2] (first compound 2 µM) it was 0.572; in assay [3] (first compound 0.02 µM), 0.5; in assay [3] (first compound 0.2 µM) it was 0.439; in assay [3] (first compound 0.6325 µM), 0.466; in assay [3] (first compound 2 µM) it was 0.444. For the same cell line, the relative viability is 0.732 in assay [4] (first compound 0.02 µM); 0.717 in assay [4] (first compound 0.06325 µM); 0.644 in assay [4] (first compound 0.2 µM); 0.711 in assay [4] (first compound 2 µM); 0.425 in assay [5] (first compound 0.02 µM); 0.45 in assay [5] (first compound 0.06325 µM). Further, the results for the relative viability in assay [5] (first compound 0.2 µM) and in assay [5] (first compound 2 µM) were 0.462 and 0.445, respectively.
On to NCI-H1355, for which the relative viability in assay [1] (first compound 0.02 µM) worked out at 0.772; in assay [1] (first compound 0.2 µM), 0.777; in assay [1] (first compound 0.6325 µM) it was 0.768; in assay [1] (first compound 2 µM) it was 0.785; in assay [2] (first compound 0.02 µM) it was 0.397; in assay [2] (first compound 0.2 µM), 0.477. The relative viability was 0.453 in assay [2] (first compound 0.6325 µM); 0.481 in assay [2] (first compound 2 µM); 0.357 in assay [3] (first compound 0.02 µM); 0.368 in assay [3] (first compound 0.2 µM); 0.355 in assay [3] (first compound 0.6325 µM); 0.401 in assay [3] (first compound 2 µM). Also, the relative viability in assay [4] (first compound 0.02 µM) worked out at 1.15; in assay [4] (first compound 0.06325 µM) it was 1.28; in assay [4] (first compound 0.2 µM), 1.14; in assay [4] (first compound 2 µM), 1.2; in assay [5] (first compound 0.02 µM), 0.32; in assay [5] (first compound 0.06325 µM), 0.363. Moreover, the relative viability in assay [5] (first compound 0.2 µM) worked out at 0.335; in assay [5] (first compound 2 µM), 0.373.
Consider NCI-H1437, for which the relative viability worked out at 0.512 in assay [1] (first compound 0.02 µM); 0.391 in assay [1] (first compound 0.2 µM); 0.429 in assay [1] (first compound 0.6325 µM); 0.409 in assay [1] (first compound 2 µM); 0.281 in assay [2] (first compound 0.02 µM); 0.342 in assay [2] (first compound 0.2 µM). Also, the relative viability in assay [2] (first compound 0.6325 µM) amounted to 0.334; in assay [2] (first compound 2 µM), 0.326; in assay [3] (first compound 0.02 µM), 0.672; in assay [3] (first compound 0.2 µM), 0.603; in assay [3] (first compound 0.6325 µM), 0.623; in assay [3] (first compound 2 µM) it was 0.575. Further, the relative viability in assay [4] (first compound 0.02 µM) turned out to be 0.513; in assay [4] (first compound 0.06325 µM), 0.525; in assay [4] (first compound 0.2 µM) it was 0.414; in assay [4] (first compound 2 µM) it was 0.383; in assay [5] (first compound 0.02 µM), 0.568; in assay [5] (first compound 0.06325 µM), 0.587. In addition, the relative viability came out at 0.583 in assay [5] (first compound 0.2 µM) and 0.537 in assay [5] (first compound 2 µM).
On to NCI-H1650, for which the relative viability came to 0.299 in assay [1] (first compound 0.02 µM); 0.307 in assay [1] (first compound 0.2 µM); 0.423 in assay [1] (first compound 0.6325 µM); 0.294 in assay [1] (first compound 2 µM); 0.493 in assay [2] (first compound 0.02 µM); 0.44 in assay [2] (first compound 0.2 µM). The relative viability in assay [2] (first compound 0.6325 µM) turned out to be 0.446; in assay [2] (first compound 2 µM), 0.413; in assay [3] (first compound 0.02 µM) it was 0.438; in assay [3] (first compound 0.2 µM), 0.385; in assay [3] (first compound 0.6325 µM), 0.473; in assay [3] (first compound 2 µM), 0.548. Also, the relative viability in assay [4] (first compound 0.02 µM) came to 0.198; in assay [4] (first compound 0.06325 µM) it was 0.18; in assay [4] (first compound 0.2 µM), 0.183; in assay [4] (first compound 2 µM), 0.229; in assay [5] (first compound 0.02 µM) it was 0.447; in assay [5] (first compound 0.06325 µM), 0.441. Moreover, the figures for the relative viability in assay [5] (first compound 0.2 µM) and in assay [5] (first compound 2 µM) were 0.344 and 0.371, respectively.
